Experimental data taken from article PMC11589570, “Critical assessment of LC3/GABARAP ligands used for degrader development and ligandability of LC3/GABARAP binding pockets” (Nature Communications, 2024).

Assays:
LC3B = LC3B (Homo sapiens, UniProt Q9GZQ8); test: FP assay with 10O5- and 8F20-based dye-linked tracers 16 and 17; details: LC3B
Text: (§2) The only experimental difference in our FP assay setup was the addition of 0.05% Tween-20, which is routinely used[27] to suppress unspecific binding of compounds to proteins.
(§3) Fluorescence polarization assay utilizing tracers 16 and 17 for interaction studies with LC3A
(§4) (upper panels) and LC3B (lower panels). The left panels depict protein titration measurements
(§5) detergent in the buffer to suppress unspecific binding. Middle panels depict displacement
Data were collected in technical
(§6) triplicates with error bars expressing the SD (n=3).

LC3A = LC3A (Homo sapiens, UniProt Q9H492); test: as above; details: LC3A
Text: as §2, §3, §4, §5
Data were collected in technical
as §6

[1] = target: T1, NanoLuc-fusion full-length LC3B (Homo sapiens, UniProt Q9GZQ8); test: NanoBRET cellular target engagement assay in HEK293T cells; format: cell-based
T1 construct: a fluorescent donor (in this case full length LC3A and LC3B); expressed in transfected cells; host or cells: HEK293T (ATCC; CRL-11268)
Experimental: (§1) NanoBRET cellular target engagement assay: Constructs contained the cDNA of full-length LC3A and LC3B cloned in frame with an N-terminal NanoLuc-fusion. Plasmids were transfected into HEK293T (ATCC; CRL-11268) cells using FuGENE HD (Promega, E2312) and proteins were allowed to express for 20 h. 10O5 and 8F20-based tracers were titrated to the protein as depicted in Supplementary Fig. 4d. For competition experiments, 1 µM of the tracers was pipetted into white 384-well plates (Greiner 781 207) using an Echo 550 acoustic dispenser (Labcyte) containing LC3A/LC3B expressing transfected cells at a density of 2.5 × 10^5 cells/mL in Opti-MEM without phenol red (Life Technologies). The system was allowed to equilibrate for 2 h at 37 °C and 5% CO2 prior to BRET measurements. To measure BRET, NanoBRET NanoGlo Substrate + Extracellular NanoLuc Inhibitor (Promega, N2540) was added as per the manufacturer’s protocol, and filtered luminescence was measured on a PHERAstar plate reader (BMG Labtech) equipped with a luminescence filter pair (450 nm BP filter (donor) and 610 nm LP filter (acceptor)). Competitive displacement data were then plotted using GraphPad Prism 9.3 software using a normalized 3-parameter curve fit. A detailed step-by-step protocol for this assay is described in Schwalm..

[2] = target: T2, NanoLuc-fusion full-length LC3A (Homo sapiens, UniProt Q9H492); test: as above; format: cell-based
T2 construct: a fluorescent donor (in this case full length LC3A and LC3B); expressed in transfected cells; host or cells: HEK293T (ATCC; CRL-11268)
Experimental: as §1

[3] = 0.05% Tween20 supplemented buffer

Cc1ccc(C(=O)N(CCCNC(=O)CCOCCOCCOCCNC(=O)CCc2ccc3n2[B-](F)(F)[N+]2=C(c4ccc[nH]4)C=CC2=C3)[C@@H](c2nc3cc(Cl)ccc3c(=O)n2Cc2ccccc2)C(C)C)cc1 [compound 17, (R)-N-(1-(3-benzyl-7-chloro-4-oxo-3,4-dihydroquinazolin-2-yl)−2-methylpropyl)-N-(1-(5,5-difluoro-7-(1H-pyrrol-2-yl)−5H−5l4,6l4-dipyrrolo[1,2-c:2’,1’-f][1,3,2]diazaborinin-3-yl)−3,16-dioxo-7,10,13-trioxa-4,17-diazaicosan-20-yl)−4-methylbenzamide]
tracer binding in repeated protein titration (LC3B; [3]): completely abolishing the putative binding | tracer affinity (protein titration for tracer KD) (LC3B; buffer lacking detergent): nanomolar | tracer binding in repeated protein titration (LC3A; [3]): completely abolishing the putative binding | tracer affinity (protein titration for tracer KD) (LC3A; buffer lacking detergent): nanomolar | NanoBRET signal / tracer displacement ([1]; LC3B, 1 µM tracer, compound 4 for tracer 16, compound 3 for tracer 17): no BRET signal | maximum BRET increase in tracer titration ([1]; NanoLuciferase-tagged LC3B): ~ 1.3 fold | NanoBRET signal / tracer displacement ([2]; LC3A, 1 µM tracer, compound 4 for tracer 16, compound 3 for tracer 17): no BRET signal | maximum BRET increase in tracer titration ([2]; NanoLuciferase-tagged LC3A): ~ 1.3 fold
